Patent US11633473B2 (priority 2017, dated 2023)

Key:
neonatal BMDCs = experiment: BMDC in vitro stimulation with PRR agonists/adjuvants, 20-24 h: cytokines by ELISA, maturation markers by flow cytometry; format: cell-based, C57BL/6 mice
Protocol: Briefly, mice were sacrificed and legs removed; bones were surgically cleaned from surrounding tissue, extremities of tibiae and femurs were trimmed with sterile scissors and bone marrow flushed through a 70 μm nylon mesh strainer (Corning Life Sciences). Cell number and viability was determined by trypan blue exclusion. […] Plates were incubated in humidified atmosphere at 37° C., 5% CO2 for 6 days, with one supplement of 10 ml of complete culture medium and rmGM-CSF on day 3. On Day 6, non-adherent and loosely adherent cells were harvested by washing the plate gently with culture medium. Adherent cells were discarded. For flow cytometry analysis, BMDCs were stained (20 minutes at 4° C.) in PBS+FBS 2%+EDTA 2 mM, fixed with formaldehyde 4% (10 minutes at RT) and acquired on a BD LSRFortessa flow cytometer (BD Biosciences) or a Sony spectral analyzer SP6800 (Sony Biotechnology) and data were analyzed using FlowJo v.10 software (Tree Star). For a complete list of antibodies and fluorochromes used in the study see Table 2.
Rough (Salmonella Minnesota, R595) and smooth (Escherichia coli, O55:B5) lipopolysaccharide (LPS) were purchased from List Biological Laboratories. […] All PRR agonists employed in the studies were chosen based on and verified endotoxin free as indicated by the manufacturers. For stimulation experiments, immature BMDCs generated from newborn and adult mice were plated in round bottom 96-wells non-tissue culture-treated plates at the density of 10^5 cells/well in 200 μl of fresh complete culture medium with rmGM-CSF as described above, with the appropriate stimuli at the concentrations indicated in Table 3. Cells were incubated at 37° C. for 20-24 hours, then supernatant harvested and TNF, IL-6, IL-1β and IL-12p70 concentrations were measured by ELISA (R&D Systems). IFNβ was measured with a bioluminescent ELISA kit (LumiKine, Invivogen). Alternatively, BMDCs were stained and analyzed by flow cytometry as indicated above.

adult C57BL/6 mice = format: in vivo; conditions: prime-boost i.m., rHA + adjuvant, Day 35 post-prime
[1] = Quantification of 2′3′-cGAMP adsorption onto alum by RP-HPLC; conditions: for % Adsorbed to Alum: 1:10 cGAMP:alum mass ratio, saline
Protocol: After vortexing for 10 seconds the sample was placed in a 37° C. incubator. Every 15 minutes the sample was vortexed for an additional 5 seconds and placed back into the incubator. […] Supernatant was immediately removed and placed into an autosampler vial undiluted for analysis by reverse-phase high performance liquid chromatography (RP-HPLC) to determine adsorption as a function of time. RP-HPLC samples were run on a Waters 2695 HPLC equipped with a 2996 photodiode array detector at a wavelength of 254 nm. A gradient was performed using a two mobile phase system of 0.1% trifluoroacetic acid in water and 0.1% trifluoroacetic acid in acetonitrile, on an Agilent Zorbax Eclipse Plus C18, 4.6×150 mm, 5 micron column at 25° C.

adult BMDCs = experiment: BMDC in vitro stimulation with PRR agonists/adjuvants, 20-24 h: cytokines by ELISA; format: cell-based, C57BL/6 mice; conditions: increasing concentrations
Protocol: BMDCs were generated from newborn (5-7 days old) and adult (6-12 weeks old) C57BL/6 mice with an adaptation of previously described methods (Dowling et al., 2008, Lutz et al., 1999). Briefly, mice were sacrificed and legs removed; bones were surgically cleaned from surrounding tissue, extremities of tibiae and femurs were trimmed with sterile scissors and bone marrow flushed through a 70 μm nylon mesh strainer (Corning Life Sciences). Cell number and viability was determined by trypan blue exclusion. […] For flow cytometry analysis, BMDCs were stained (20 minutes at 4° C.) in PBS+FBS 2%+EDTA 2 mM, fixed with formaldehyde 4% (10 minutes at RT) and acquired on a BD LSRFortessa flow cytometer (BD Biosciences) or a Sony spectral analyzer SP6800 (Sony Biotechnology) and data were analyzed using FlowJo v.10 software (Tree Star). […]
Rough (Salmonella Minnesota, R595) and smooth (Escherichia coli, O55:B5) lipopolysaccharide (LPS) were purchased from List Biological Laboratories. […] Cells were incubated at 37° C. for 20-24 hours, then supernatant harvested and TNF, IL-6, IL-1β and IL-12p70 concentrations were measured by ELISA (R&D Systems). IFNβ was measured with a bioluminescent ELISA kit (LumiKine, Invivogen). Alternatively, BMDCs were stained and analyzed by flow cytometry as indicated above. […]

newborn mice = format: in vivo; conditions: single dose immunization, serum at DOL 35
newborn C57BL/6 mice = format: in vivo; conditions: prime-boost DOL 7 and 14, Day 35 post-prime (DOL 42)

Structure (SMILES): CCCCNc1nc(N)c2[nH]c(=O)n(Cc3ccc(C(=O)NCC(=O)O)cc3)c2n1 [CL264, reference compound]
- IL-12p70 production by neonatal BMDCs (neonatal BMDCs; most effective non-toxic concentration, 20-24 h): failed to produce IL-12p′70

Structure (SMILES): Nc1nc2c(ncn2[C@@H]2O[C@@H]3COP(=O)(O)O[C@H]4[C@@H](O)[C@H](n5cnc6c(N)ncnc65)O[C@@H]4COP(=O)(O)O[C@@H]2[C@@H]3O)c(=O)[nH]1 [cGAMP, cyclic guanosine monophosphate (GMP)-adenosine monophosphate (AMP)]
- median anti-rHA IgG1 titers (adult C57BL/6 mice): 0.77×10^6
- median anti-rHA IgG2c titers (adult C57BL/6 mice): 0.82×10^6
- median anti-rHA IgG titers (adult C57BL/6 mice): increased anti-rHA IgG titers
- degradation products during incubation with alum ([1]; 37° C., over 24 hours): No significant degradation products
- Peak Area of cGAMP in supernatant (RP-HPLC, 254 nm) ([1]; 15 min, 37° C.): 22.53 mAU
- % Adsorbed to Alum ([1]; 15 min, 37° C.): 63%
- Peak Area of cGAMP in supernatant (RP-HPLC, 254 nm) ([1]; 30 min, 37° C.): 22.93 mAU
- % Adsorbed to Alum ([1]; 30 min, 37° C.): 62.34%
- Peak Area of cGAMP in supernatant (RP-HPLC, 254 nm) ([1]; 1 hour, 37° C.): 22.22 mAU
- % Adsorbed to Alum ([1]; 1 hour, 37° C.): 63.51%
- Peak Area of cGAMP in supernatant (RP-HPLC, 254 nm) ([1]; 2 hours, 37° C.): 20.83 mAU
- % Adsorbed to Alum ([1]; 2 hours, 37° C.): 65.79%
- Peak Area of cGAMP in supernatant (RP-HPLC, 254 nm) ([1]; 4 hours, 37° C.): 21.02 mAU
- % Adsorbed to Alum ([1]; 4 hours, 37° C.): 65.48%
- Peak Area of cGAMP in supernatant (RP-HPLC, 254 nm) ([1]; 24 hours, 37° C.): 15.02 mAU
- % Adsorbed to Alum ([1]; 24 hours, 37° C.): 75.33%
- cGAMP adsorbed onto alum in vitro ([1]; summary statement in discussion, no time given): about 60%
- upregulation of surface maturation markers (CD40, CD80, CD86), neonatal vs adult BMDCs (neonatal BMDCs; 20-24 h stimulation): comparable
- dependence of neonatal BMDC maturation marker expression on type I IFN signaling (neonatal BMDCs; cGAMP 25 μg/ml, blocking anti-TNF and anti-IFNAR antibodies): type I interferon-dependent manner
- upregulation of surface maturation marker expression, cGAMP vs R848 (neonatal BMDCs; neonatal and adult BMDCs, different concentrations): more effective than R848
- IFNβ production (neonatal BMDCs; newborn BMDCs, increasing concentrations): dose-dependent IFNβ production
- IFNβ production (adult BMDCs): dose-dependent IFNβ production
- median anti-rHA IgG1 titers (newborn mice): did not induce detectable
- median anti-rHA IgG2c titers (newborn mice): did not induce detectable
- median anti-rHA IgG titers (newborn mice): did not induce detectable
- median anti-rHA IgG1 titers (newborn C57BL/6 mice): 24.51×10^3
- median anti-rHA IgG2c titers (newborn C57BL/6 mice): 0.23×10^3
- median anti-rHA IgG titers (newborn C57BL/6 mice): 20.57×10^3
